Among the test systems are MDA-MB-435; LOX IMVI melanoma; UACC-62 melanoma; OVCAR-8 ovarian; SNB-75 CNS; OVCAR-3 ovarian; SR leukemia; KM12 colon.
What all share (test): NCI-60 cell line screen, 48 h

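Exposure lasted 48 hours, with cells grown in 96-well plates and compounds tested at five concentrations. GI50: concentration for 50% inhibition of growth. The concentration for full growth arrest is given as TGI.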

For the molecule `CC1=C(C#N)C23C(=O)N(c4ccccc4)C(=O)C2=C(O)C=CC3(O)N1Cc1ccc(Cl)cc1Cl` (stereo unspecified), the GI50 in the experiment with MDA-MB-435 is 1.89 µM; in the experiment on LOX IMVI melanoma, 1.59 µM; in the experiment on UACC-62 melanoma, 1.88 µM; with OVCAR-8 ovarian, 3.52 µM; with SNB-75 CNS, 4.09 µM; in the experiment with OVCAR-3 ovarian, 2.89 µM. Also, the GI50 with SR leukemia is 1.85 µM; with KM12 colon, 3.27 µM. The TGI is 4.68 µM in the experiment with MDA-MB-435; 2.94 µM with LOX IMVI melanoma; 4.4 µM with UACC-62 melanoma; 13.8 µM with OVCAR-8 ovarian; 16.7 µM in the experiment with SNB-75 CNS; 4.96 µM in the experiment with OVCAR-3 ovarian. Further, the results for the TGI in the experiment with SR leukemia and in the experiment with KM12 colon were 4.49 µM and 12 µM, respectively.

Turning to `CCC(CC)n1cnc2c(-c3cnc(N)cn3)nc(N3CC4CCC(C3)O4)nc21`, the GI50 was 0.314 µM in the experiment with MDA-MB-435; 0.428 µM in the experiment on LOX IMVI melanoma; 0.122 µM with UACC-62 melanoma; 0.769 µM with OVCAR-8 ovarian; 0.0848 µM in the experiment with SNB-75 CNS; 0.5 µM in the experiment on OVCAR-3 ovarian. In addition, the GI50 is 0.351 µM in the experiment with SR leukemia and 0.377 µM with KM12 colon. For the same molecule, the TGI in the experiment on MDA-MB-435 was 4.63 µM; with LOX IMVI melanoma it was greater than 100 µM; in the experiment with UACC-62 melanoma, 0.929 µM; in the experiment with OVCAR-8 ovarian, greater than 100 µM; in the experiment on SNB-75 CNS it was 1.18 µM; in the experiment with OVCAR-3 ovarian, greater than 100 µM. Besides, the TGI in the experiment with SR leukemia and with KM12 colon was greater than 100 µM each time.

Regarding `O=C(c1c(F)c(F)c(F)c(F)c1F)c1c(F)c(F)c(F)c(F)c1F`, the TGI came out at 3.21 µM in the experiment on MDA-MB-435; 2.19 µM in the experiment on LOX IMVI melanoma; 3.97 µM with UACC-62 melanoma; 2.97 µM in the experiment with OVCAR-8 ovarian; 3.48 µM in the experiment with SNB-75 CNS; 2.43 µM in the experiment with OVCAR-3 ovarian. For the same molecule, the values for the TGI in the experiment on SR leukemia and with KM12 colon were 1.07 µM and 2.04 µM, respectively.

Consider `O=C1Nc2c(Cl)cc(Cl)cc2/C1=N/N=C/c1ccco1`, for which the TGI was greater than 100 µM in the experiment on MDA-MB-435; 35 µM in the experiment with LOX IMVI melanoma; 53.6 µM in the experiment on UACC-62 melanoma; greater than 100 µM in the experiment with OVCAR-8 ovarian; 42.7 µM in the experiment on SNB-75 CNS; 95.1 µM with OVCAR-3 ovarian. Also, the TGI in the experiment on SR leukemia and in the experiment with KM12 colon was greater than 100 µM in each case.

For `O=S(=O)(N=C1C(Cl)=C(Cl)C(=NS(=O)(=O)c2ccccc2)C(Cl)=C1Cl)c1ccccc1`, the GI50 was 20.1 µM in the experiment with MDA-MB-435; 15.4 µM with LOX IMVI melanoma; 13.3 µM with UACC-62 melanoma; 17.7 µM with OVCAR-8 ovarian; 23.5 µM with SNB-75 CNS; 9.53 µM with OVCAR-3 ovarian. The GI50 was 12.7 µM in the experiment with SR leukemia and 12.2 µM in the experiment with KM12 colon. In addition, the TGI in the experiment with MDA-MB-435 was 68.3 µM; in the experiment on LOX IMVI melanoma, 43.1 µM; with UACC-62 melanoma it was 38.4 µM; in the experiment with OVCAR-8 ovarian, 50.6 µM; in the experiment with SNB-75 CNS it was greater than 100 µM; in the experiment with OVCAR-3 ovarian it was 26 µM. Besides, the TGI is greater than 100 µM in the experiment on SR leukemia and 25.6 µM with KM12 colon.

As for `COc1cc(-n2ccnc2-c2ccc3ccccc3c2)cc(OC)c1OC`, the TGI in the experiment with MDA-MB-435 was 0.124 µM; in the experiment with LOX IMVI melanoma it was greater than 47.6 µM; in the experiment with UACC-62 melanoma, 15.4 µM; in the experiment with OVCAR-8 ovarian, greater than 53.1 µM; in the experiment with SNB-75 CNS, 36.8 µM; in the experiment with OVCAR-3 ovarian, 19.4 µM. The values for the TGI in the experiment on SR leukemia and in the experiment on KM12 colon were greater than 43.4 µM and 18.9 µM, respectively. In addition, the GI50 is 1.08 µM in the experiment with LOX IMVI melanoma; 0.0657 µM in the experiment on UACC-62 melanoma; 0.398 µM in the experiment on OVCAR-8 ovarian; 0.123 µM with SNB-75 CNS; 0.0288 µM with OVCAR-3 ovarian; less than 0.0188 µM with SR leukemia. Further, the GI50 with KM12 colon is less than 0.0198 µM.

As to `NC(=O)c1cc(N2CC2)c([N+](=O)[O-])cc1[N+](=O)[O-]`, the TGI with MDA-MB-435, in the experiment with LOX IMVI melanoma, in the experiment on UACC-62 melanoma, in the experiment with OVCAR-8 ovarian, with SNB-75 CNS and with OVCAR-3 ovarian was greater than 200 µM each time. The TGI in the experiment with SR leukemia and in the experiment on KM12 colon was greater than 200 µM in each case. Moreover, the GI50 in the experiment on LOX IMVI melanoma, in the experiment on UACC-62 melanoma, with OVCAR-8 ovarian, in the experiment on SNB-75 CNS, with OVCAR-3 ovarian and in the experiment on KM12 colon was greater than 200 µM in each case.

`CCCc1nn(C)c2c(=O)[nH]c(-c3cc(S(=O)(=O)N4CCN(C)CC4)ccc3OCC)nc12`: the GI50 in the experiment on MDA-MB-435 was greater than 100 µM; in the experiment on LOX IMVI melanoma it was greater than 100 µM; in the experiment on UACC-62 melanoma, greater than 100 µM; with OVCAR-8 ovarian it was greater than 100 µM; in the experiment on SNB-75 CNS it was 53.2 µM; with OVCAR-3 ovarian, greater than 100 µM. Moreover, the GI50 in the experiment with SR leukemia and with KM12 colon was greater than 100 µM each time. Further, the TGI in the experiment with MDA-MB-435, in the experiment on LOX IMVI melanoma, in the experiment with UACC-62 melanoma, in the experiment on OVCAR-8 ovarian, with SNB-75 CNS and with OVCAR-3 ovarian was greater than 100 µM in each case. The TGI in the experiment with SR leukemia and in the experiment on KM12 colon was greater than 100 µM each time.

As for `COc1cc(-c2nn(-c3cccc(NC(=O)Nc4ccc(Cl)c(C(F)(F)F)c4)c3)cc2-c2ccncc2)ccc1Cl`, the GI50 in the experiment with MDA-MB-435 was 0.683 µM; in the experiment with LOX IMVI melanoma, 1.17 µM; in the experiment on UACC-62 melanoma, 0.738 µM; in the experiment with OVCAR-8 ovarian, 1.05 µM; in the experiment with SNB-75 CNS it was 1.28 µM; with OVCAR-3 ovarian, 0.889 µM. The GI50 is 0.884 µM in the experiment on SR leukemia and 1.06 µM in the experiment with KM12 colon. Moreover, the TGI is 1.69 µM in the experiment with MDA-MB-435; 4.61 µM in the experiment with LOX IMVI melanoma; 2.09 µM in the experiment on UACC-62 melanoma; 5.87 µM in the experiment with OVCAR-8 ovarian; 10.3 µM in the experiment with SNB-75 CNS; 2.44 µM with OVCAR-3 ovarian. Further, the TGI is 2.48 µM in the experiment with SR leukemia and 3.91 µM with KM12 colon.

For `Cc1ccc(OP(=O)(Oc2ccc(C)cc2)N2C=Cc3ccccc3C2C#N)cc1` (stereo unspecified), the TGI in the experiment with MDA-MB-435, in the experiment with LOX IMVI melanoma, in the experiment on UACC-62 melanoma, in the experiment on OVCAR-8 ovarian, in the experiment on SNB-75 CNS and in the experiment with OVCAR-3 ovarian was greater than 100 µM in each case. In addition, the TGI with SR leukemia and with KM12 colon was greater than 100 µM each time.

For the molecule `OC1CC2CCC(C1)N2CCCN1c2ccccc2Sc2ccc(Cl)cc21` (stereo unspecified), the TGI in the experiment with MDA-MB-435 was 3.31 µM; in the experiment with LOX IMVI melanoma, 3.33 µM; in the experiment with UACC-62 melanoma, 3.39 µM; with OVCAR-8 ovarian, 4.86 µM; in the experiment with SNB-75 CNS, 5.23 µM; in the experiment with OVCAR-3 ovarian, 8.27 µM. For the same molecule, the TGI was found to be 5.34 µM in the experiment on SR leukemia and 4.08 µM with KM12 colon.

The record behind these values is PubChem BioAssay (NCI).
